{
  "source": "patent EP0225272A1",
  "about": "“1-Methyl-15-alpha-alkyl-androsta-1,4-diene-3,17-diones, process for their preparation and pharmaceutical compositions containing them” (SCHERING AKTIENGESELLSCHAFT, priority 1985, dated 1987)",
  "key": {"Aromataseaktivität": {"target": "T1, Aromataseaktivität (Rattus norvegicus, UniProt P22443)", "T1 construct": "Infantile weibliche Ratten reagieren auf PMSG (Pregnant Mare's Serum Gonadotropin)-Behandlung mit einheitlich erhöhter Steroidsynthese; from tissue; host or cells: living infantile female rats (in vivo); serum estradiol measured by radioimmunoassay", "T1 sequence (P22443 1-508)": "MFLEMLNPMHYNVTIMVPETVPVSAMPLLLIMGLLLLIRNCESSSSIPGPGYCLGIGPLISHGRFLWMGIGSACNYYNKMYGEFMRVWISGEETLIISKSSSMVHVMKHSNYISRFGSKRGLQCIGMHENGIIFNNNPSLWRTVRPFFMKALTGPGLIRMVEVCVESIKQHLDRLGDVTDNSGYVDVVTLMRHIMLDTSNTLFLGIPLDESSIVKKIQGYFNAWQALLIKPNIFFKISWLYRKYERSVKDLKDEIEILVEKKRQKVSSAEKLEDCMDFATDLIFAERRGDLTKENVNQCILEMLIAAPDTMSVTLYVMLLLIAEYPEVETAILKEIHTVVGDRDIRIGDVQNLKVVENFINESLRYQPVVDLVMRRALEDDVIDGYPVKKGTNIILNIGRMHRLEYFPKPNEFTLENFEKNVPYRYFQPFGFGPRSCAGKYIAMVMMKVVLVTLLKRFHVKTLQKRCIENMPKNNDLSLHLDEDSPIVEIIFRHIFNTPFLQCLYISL", "assay": "PMSG test: serum estradiol in PMSG-pretreated infantile female rats (radioimmunoassay)", "type": "in vivo, Ratte", "conditions": "for Östradiol-Konzentration: peripheral serum, PMSG-pretreated rat, mean ± SD, n=10", "description": "Infantile weibliche Ratten reagieren auf PMSG (Pregnant Mare's Serum Gonadotropin)-Behandlung mit einheitlich erhöhter Steroidsynthese. Die Aromataseaktivität kann durch die Beeinflussung der PMSG-stimulierten Ostrogenbildung gemessen werden.\nIm sogenannten PMSG-Test werden 21 Tage alte weibliche Ratten alle 2 Tage insgesamt 7 mal mit je 100 I.U. PMSG subkutan vorbehandelt. 1 Stunde vor und 8 Stunden nach der letzten PMSG-Applikation (d12) erhalten die Tiere die Testsubstanz in 0,1 ml Benzylbenzoat/Rizinusöl (1+9) durch subkutane Injektion. Die Kontrolltiere erhalten nur das Vehikel. 24 Stunden nach der letzten PMSG-Applikation werden die Tiere getötet. Im Serum wird Östradiol radioimmunologisch geprüft. Für jede Gruppe von 10 Tieren wird der Mittelwert der Östradiolkonzentration in nMol/1 mit der Standardabweichung errechnet. Die Signifikanzen der Unterschiede zur Kontrollgruppe werden durch die Varianzanalyse geprüft.\nZur Ermittlung der relativen Wirkungsstärke der zu testenden Substanz im Vergleich zu der Standardsubstanz wird die Regressions- und Kovarianzanalyse durchgeführt. Ferner wird die prozentuale Hemmung gegen die PMSG-Kontrolle berechnet."}, "Östruszyklus der Ratte": {"tested_on": "Östruszyklus der Ratte", "assay": "Influence of aromatase inhibitors on the estrous cycle of the rat (Allen-Doisy smear technique)", "type": "in vivo, Ratten (SPF-Wistar)", "excerpt": "In einem weiteren Test wird der Einfluß von Aromatasehemmern auf den Östruszyklus der Ratte bestimmt.\nDie Substanzen, die die Östrogenbiosynthese bzw. die Wirkung von Östrogenen hemmen, führen zu einer Störung des Östruszyklus bei Nagern.\nVerwendet werden weibliche Ratten (SPF-Wistar) von ca. 180 g Körpergewicht. Pro Gruppe werden 10 Tiere eingesetzt. Der Zyklus wird mittels der Allen-Doisy-Abstrichtechnik täglich untersucht. Es werden zwei aufeinanderfolgende Zyklen verfolgt. Nur Tiere mit einem regelmäßigen 4-Tage-Zyklus kommen in den Versuch. Am Tage des Metöstrus werden die Tiere einmal mit der Testsubstanz (20 mg/Tier) subcutan behandelt. Die Testsubstanz wird dabei in einer 0.9%igen Kochsalzlösung mit Myrj-53^(R) (0.085%) suspendiert (0,5 ml/Dosis). Die Kontrolltiere werden nicht behandelt. Der Versuch wird beendet. wenn alle behandelten Tiere wieder normale Zyklen aufweisen."}},
  "data": [
    {"smiles": "C[C@]12CCC(=O)C(O)=C1CC[C@@H]1[C@@H]2CC[C@]2(C)C(=O)CC[C@@H]12", "note": "[A, 4-Hydroxy-4-androsten-3,17-dion]", "values": [
      {"measurement": "Dosis, mit der eine Hemmung der Östradiol-Konzentration beobachtet wird", "setting": "Aromataseaktivität; lowest dose with inhibition, given 2 x s.c.", "value": "1,0 mg"},
      {"measurement": "Östradiol-Konzentration", "setting": "Aromataseaktivität; dose 0,1 mg/Tier 2 x s.c.", "value": "3,98 ± 1,12 nMol/l"},
      {"measurement": "Östradiol-Konzentration", "setting": "Aromataseaktivität; dose 0,3 mg/Tier 2 x s.c.", "value": "3,84 ± 0,84 nMol/l"},
      {"measurement": "Östradiol-Konzentration", "setting": "Aromataseaktivität; dose 1,0 mg/Tier 2 x s.c.", "value": "1,94 ± 0,62 nMol/l"},
      {"measurement": "Östradiol-Konzentration", "setting": "Aromataseaktivität; dose 3,0 mg/Tier 2 x s.c.", "value": "0,98 ± 0,19 nMol/l"}
    ]},
    {"smiles": "CC(=O)O[C@@H](C)[C@H]1CC(=O)[C@@]2(C)CC[C@H]3[C@@H](CCC4=CC(=O)C=C(C)[C@@]43C)[C@H]12", "note": "[B]", "values": [
      {"measurement": "Östradiol-Konzentration", "setting": "Aromataseaktivität; dose 0,1 mg/Tier 2 x s.c.", "value": "2,11 ± 0,39 nMol/l"},
      {"measurement": "Östradiol-Konzentration", "setting": "Aromataseaktivität; dose 0,3 mg/Tier 2 x s.c.", "value": "0,62 ± 0,13 nMol/l"},
      {"measurement": "Östradiol-Konzentration", "setting": "Aromataseaktivität; dose 1,0 mg/Tier 2 x s.c.", "value": "0,54 ± 0,07 nMol/l"},
      {"measurement": "Östradiol-Konzentration", "setting": "Aromataseaktivität; dose 3,0 mg/Tier 2 x s.c.", "value": "0,36 ± 0,06 nMol/l"}
    ]},
    {"smiles": "CCCC(=O)OC(C)C1CC(=O)C2(C)CCC3C(CCC4=CC(=O)C=C(C)C43C)C12", "note": "(stereo not drawn) [C, 15a-(1S-Butyryloxy-ethyl)-1-methyl-androsta-1.4-dien-3,17-dion]", "values": [
      {"measurement": "Dauer der Störung des Zyklus (Durchschnitt)", "setting": "Östruszyklus der Ratte; single s.c. 20 mg/Tier, average", "value": "~15", "unit": "Tage"},
      {"measurement": "Zykluslänge der meisten behandelten Tiere", "setting": "Östruszyklus der Ratte; single s.c. 20 mg/Tier, untreated animals regular 4-day cycle", "value": "5-Tage-Zyklus"},
      {"measurement": "Wirkung auf den Zyklus", "setting": "Östruszyklus der Ratte; single s.c. treatment 20 mg/Tier at metestrus, effect starts right after treatment", "value": "Störung des Zyklus"}
    ]}
  ]
}
